Test results from ChEMBL document CHEMBL1201862, “PubChem BioAssay data set” (2004).
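Where inhibition never reached the appropriate level, the endpoint shown equals the highest concentration tested. Otherwise, values were interpolated linearly from a five-concentration, 48-hour dose response in 96-well plates. The concentration for 50% growth inhibition is given as GI50.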 The source made the active and inactive calls. Cut-off read from the data, not from the text of the source: active = GI50 up to about 1.1 µM and inactive = higher.

What was measured:
Experiment in all cases: NCI-60 cell line screen, 48 h
[1] = system: 786-0
[2] = system: A498
[3] = system: A549
[4] = system: BT-549
[5] = system: CAKI-1
[6] = system: CCRF-CEM
[7] = system: COLO 205
[8] = system: DLD-1
[9] = system: DMS-114
[10] = system: DMS-273
[11] = system: DU-145
[12] = system: EKVX
[13] = system: HCC 2998
[14] = system: HCT-15
[15] = system: HL-60
[16] = system: HOP-18
[17] = system: HOP-62
[18] = system: HOP-92
[19] = system: Hs-578T
[20] = system: IGROV-1
[21] = system: K562
[22] = system: KM-20L2
[23] = system: LOX IMVI
[24] = system: LXFL 529
[25] = system: M14
[26] = system: M19-MEL
[27] = system: MCF7
[28] = system: MDA-MB-231
[29] = system: MDA-MB-435
[30] = system: MDA-N
[31] = system: MOLT-4
[32] = system: Malme-3M
[33] = system: NCI-H226
[34] = system: NCI-H23
[35] = system: NCI-H460
[36] = system: NCI/ADR-RES
[37] = system: OVCAR-5
[38] = system: OVCAR-8
[39] = system: PC-3
[40] = system: RPMI-8226
[41] = system: RXF 393
[42] = system: RXF 631
[43] = system: SF-268
[44] = system: SF-295
[45] = system: SF-539
[46] = system: SK-MEL-2
[47] = system: SK-OV-3
[48] = system: SN12C
[49] = system: SNB-19
[50] = system: SNB-75
[51] = system: SNB-78
[52] = system: SR
[53] = system: SW-620
[54] = system: T47D
[55] = system: U-251
[56] = system: UACC-257
[57] = system: UACC-62
[58] = system: UO-31
[59] = system: XF498

SMILES: CCC(C)SC1SCC2C(=O)N(C)C3(CC3C)C(=O)OCC(NC(=O)c3nc4ccccc4cc3O)C(=O)NC(C)C(=O)N(C)C1C(=O)N(C)C1(CC1C)C(=O)OCC(NC(=O)c1nc3ccccc3cc1O)C(=O)NC(C)C(=O)N2C (centres undefined)
- GI50 [1]: 0.034 nM (active)
- GI50 [2]: 0.102 nM (active)
- GI50 [3]: 0.15 nM (active)
- GI50 [4]: 0.0435 nM (active)
- GI50 [5]: 10 nM (active)
- GI50 [6]: 0.0873 nM (active)
- GI50 [7]: 0.0501 nM (active)
- GI50 [8]: 0.2 nM (active)
- GI50 [9]: 0.107 nM (active)
- GI50 [10]: 0.023 nM (active)
- GI50 [11]: 0.188 nM (active)
- GI50 [12]: 0.38 nM (active)
- GI50 [13]: 0.103 nM (active)
- GI50 [14]: 2.04 nM
- GI50 [15]: 0.0929 nM (active)
- GI50 [16]: 0.232 nM (active)
- GI50 [17]: 0.0564 nM (active)
- GI50 [18]: 0.0587 nM (active)
- GI50 [19]: 0.0524 nM (active)
- GI50 [20]: 0.137 nM (active)
- GI50 [21]: 0.0277 nM (active)
- GI50 [22]: 0.137 nM (active)
- GI50 [23]: 0.026 nM (active)
- GI50 [24]: 0.031 nM (active)
- GI50 [25]: 0.116 nM (active)
- GI50 [26]: 0.033 nM (active)
- GI50 [27]: 0.012 nM (active)
- GI50 [28]: 0.0578 nM (active)
- GI50 [29]: 0.0497 nM (active)
- GI50 [30]: 0.0471 nM (active)
- GI50 [31]: 0.128 nM (active)
- GI50 [32]: 0.0412 nM (active)
- GI50 [33]: 0.0499 nM (active)
- GI50 [34]: 0.0325 nM (active)
- GI50 [35]: 0.0482 nM (active)
- GI50 [36]: 33.1 nM (active)
- GI50 [37]: 0.18 nM (active)
- GI50 [38]: 0.091 nM (active)
- GI50 [39]: 0.116 nM (active)
- GI50 [40]: 0.0415 nM (active)
- GI50 [41]: 0.0476 nM (active)
- GI50 [42]: 0.195 nM (active)
- GI50 [43]: 0.0481 nM (active)
- GI50 [44]: 0.0991 nM (active)
- GI50 [45]: 0.0479 nM (active)
- GI50 [46]: 0.0437 nM (active)
- GI50 [47]: 0.144 nM (active)
- GI50 [48]: 0.0499 nM (active)
- GI50 [49]: 0.0479 nM (active)
- GI50 [50]: 0.0293 nM (active)
- GI50 [51]: 10 nM (active)
- GI50 [52]: 0.0279 nM (active)
- GI50 [53]: 0.0478 nM (active)
- GI50 [54]: 0.219 nM (active)
- GI50 [55]: 0.0318 nM (active)
- GI50 [56]: 0.053 nM (active)
- GI50 [57]: 0.0155 nM (active)
- GI50 [58]: 2.75 nM (active)
- GI50 [59]: 0.0507 nM (active)
